Data from patent publication US10125134B2 (Mirati Therapeutics, Inc., priority 2016, dated 2018).
Read-outs that look alike come from different tables or passages of the source.

Experiments:
KRas G12C = KRas G12C (Homo sapiens, UniProt P01116, C118S/C51S/C80L/G12C); experiment: KRas G12C Modification Assay (LCMS detection of covalent adduct); format: binding; settings: normalized percent of control; tested at 5 μM concentration for 3 hours
Method in brief: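 Covalent modification was read by reverse-phase LC/MS of intact protein after compound exposure, each reaction stopped at its time point with 25 mM acetic acid. Unmodified-protein signal, taken as percent of total, was normalised to untreated protein and reported as POC.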

[1] = test system: NCI-H358 cells (express KRas G12C), Phospho-ERK; experiment: Cellular inhibition of KRas G12C: Phospho-ERK in NCI-H358 cells; format: cell-based; settings: pERK(Thr202/Tyr204) normalized with GAPDH, NCI-H358 cells, 3 hours, read-out: IC50
Method in brief: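 IC50 derived by 4-parameter fit of GAPDH-normalized pERK(Thr202/Tyr204) signal, as percent of DMSO control. Signal came from in-cell immunodetection with infrared secondaries after 3 h compound exposure of KRas G12C NCI-H358 cells at 0.5% DMSO.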

POC (KRas G12C) | SMILES | IC50 ([1]; Homo sapiens, NCI-H358, 3 h) [µM] | IC50 [1] [µM] | IC50 ([1]; Homo sapiens) [µM]
C (“C”>50% POC) | C=CC(=O)N1CCN(c2nc(OCC(C)N(C)C)nc3c2CCN(c2cc(O)cc4ccccc24)C3)CC1 (stereo not drawn) [Example 73, 1-(4-(2-(2-(dimethylamino)propoxy)-7-(3-hydroxynaphthalen-1-yl)-5,6,7,8-tetrahydropyrido[3,4-d]pyrimidin-4-yl)piperazin-1-yl)prop-2-en-1-one] | > 1 | – | –
C (“C”>50% POC) | C=CC(=O)N1CCN(c2nc(OC[C@@H]3CCCN3C)nc3c2CCN(c2cccc(F)c2C)C3)C[C@@H]1CC#N [Example 388, 2-((S)-1-acryloyl-4-(7-(3-fluoro-2-methylphenyl)-2-(((S)-1-methylpyrrolidin-2-yl)methoxy)-5,6,7,8-tetrahydropyrido[3,4-d]pyrimidin-4-yl)piperazin-2-yl)acetonitrile] | 0.0001 to 1 | – | –
C (“C”>50% POC) | C=CC(=O)N1CCN(c2nc(OCC3CN(C)CCO3)nc3c2CCN(c2cc(O)cc4ccccc24)C3)CC1 (stereo not drawn) [Example 193, 1-(4-(7-(3-hydroxynaphthalen-1-yl)-2-((4-methylmorpholin-2-yl)methoxy)-5,6,7,8-tetrahydropyrido[3,4-d]pyrimidin-4-yl)piperazin-1-yl)prop-2-en-1-one] | 0.0001 to 1 | – | –
C (“C”>50% POC) | C=CC(=O)N1CCN(c2nc(OCCCN3CCOCC3)nc3c2CCN(c2cc(O)cc(Cl)c2F)C3)CC1 [Example 232, 1-(4-(7-(3-chloro-2-fluoro-5-hydroxyphenyl)-2-(3-morpholinopropoxy)-5,6,7,8-tetrahydropyrido[3,4-d]pyrimidin-4-yl)piperazin-1-yl)prop-2-en-1-one] | – | – | > 1
C (“C”>50% POC) | C=CC(=O)N1CCN(c2nc(OCCCN3CCOCC3)nc3c2CCN(c2cc(O)cc4ccccc24)C3)C(CO)C1 (stereo not drawn) [Example 168, 1-(3-(hydroxymethyl)-4-(7-(3-hydroxynaphthalen-1-yl)-2-(3-morpholinopropoxy)-5,6,7,8-tetrahydropyrido[3,4-d]pyrimidin-4-yl)piperazin-1-yl)prop-2-en-1-one] | – | – | > 1
C (“C”>50% POC) | C=CC(=O)N1CCN(c2nc(OC[C@H]3C[C@@H](O)CN3C)nc3c2CCN(c2cccc(F)c2C(F)(F)F)C3)CC1CC#N (stereo partly drawn) [Example 415, 2-(1-acryloyl-4-(7-(3-fluoro-2-(trifluoromethyl)phenyl)-2-(((2R,4R)-4-hydroxy-1-methylpyrrolidin-2-yl)methoxy)-5,6,7,8-tetrahydropyrido[3,4-d]pyrimidin-4-yl)piperazin-2-yl)acetonitrile] | 0.0001 to 1 | – | –
C (“C”>50% POC) | C=CC(=O)N1CCN(c2nc(OC[C@@H]3CCC(C)(C)N3C)nc3c2CCN(c2cccc4ccccc24)C3)CC1CC#N (stereo partly drawn) [Example 301, 2-[4-[7-(1-naphthyl)-2-[[(2S)-1,5,5-trimethylpyrrolidin-2-yl]methoxy]-6,8-dihydro-5H-pyrido[3,4-d]pyrimidin-4-yl]-1-prop-2-enoyl-piperazin-2-yl]acetonitrile] | 0.0001 to 1 | – | –
A (“A”≤25% POC) | C=CC(=O)N1CCN(c2ncnc3c2CCN(c2nc(N)cc4ccccc24)C3)CC1 [Example 54, 1-[4-[7-(3-amino-1-isoquinolyl)-6,8-dihydro-5H-pyrido[3,4-d]pyrimidin-4-yl]piperazin-1-yl]prop-2-en-1-one] | – | – | > 1

The remaining lines, values behind:

SMILES | POC (KRas G12C) | IC50 ([1]; Homo sapiens, NCI-H358, 3 h) [µM] | IC50 [1] [µM] | IC50 ([1]; Homo sapiens) [µM]
C=CC(=O)N1CCN(c2nc(OC[C@@H]3C[C@@H](OC)CN3C)nc3c2CCN(c2cc(OC)cc4ccccc24)C3)CC1 [Example 356, 1-[4-[2-[[(2S,4R)-4-methoxy-1-methyl-pyrrolidin-2-yl]methoxy]-7-(3-methoxy-1-naphthyl)-6,8-dihydro-5H-pyrido[3,4-d]pyrimidin-4-yl]piperazin-1-yl]prop-2-en-1-one] | C (“C”>50% POC) | > 1 | – | –
CC#CC(=O)N1CCN(c2nc(OC[C@@H]3CCCN3C)nc3c2CCN(c2cccc4cccc(C)c24)C3)C[C@@H]1CC#N [Example 455, 2-((S)-1-(but-2-ynoyl)-4-(7-(8-methylnaphthalen-1-yl)-2-(((S)-1-methylpyrrolidin-2-yl)methoxy)-5,6,7,8-tetrahydropyrido[3,4-d]pyrimidin-4-yl)piperazin-2-yl)acetonitrile] | C (“C”>50% POC) | 0.0001 to 1 | – | –
C=CC(=O)N1CCN(c2nc(OC[C@@H]3CCCN3C)nc3c2CCN(c2c(F)cccc2C(F)(F)F)C3)CC1CC#N (stereo partly drawn) [Example 275, 2-(1-acryloyl-4-(7-(2-fluoro-6-(trifluoromethyl)phenyl)-2-(((S)-1-methylpyrrolidin-2-yl)methoxy)-5,6,7,8-tetrahydropyrido[3,4-d]pyrimidin-4-yl)piperazin-2-yl)acetonitrile] | C (“C”>50% POC) | 0.0001 to 1 | – | –
C=CC(=O)N1CCN(c2nc(OC[C@H]3COCCN3C)nc3c2CCN(c2cccc4ccccc24)C3)CC1CC#N (stereo partly drawn) [Example 444, 2-(1-Acryloyl-4-(2-(((R)-4-methylmorpholin-3-yl)methoxy)-7-(naphthalen-1-yl)-5,6,7,8-tetrahydropyrido[3,4-d]pyrimidin-4-yl)piperazin-2-yl)acetonitrile] | C (“C”>50% POC) | – | > 1 | –
C=CC(=O)N1CCN(c2nc(OC[C@@H]3CCCN3C)nc3c2CCN(c2cccc(F)c2C(F)(F)F)C3)CC1CC#N (stereo partly drawn) [Example 230, 2-(1-acryloyl-4-(7-(3-fluoro-2-(trifluoromethyl)phenyl)-2-(((S)-1-methylpyrrolidin-2-yl)methoxy)-5,6,7,8-tetrahydropyrido[3,4-d]pyrimidin-4-yl)piperazin-2-yl)acetonitrile] | C (“C”>50% POC) | 0.0001 to 1 | – | –
C=CC(=O)N1CCN(c2nc(OC[C@@H]3C[C@@H](OC)CN3C)nc3c2CCN(c2cccc(Cl)c2C(F)(F)F)C3)C[C@@H]1CC#N [Example 332, 2-[(2S)-4-[7-[3-chloro-2-(trifluoromethyl)phenyl]-2-[[(2S,4R)-4-methoxy-1-methyl-pyrrolidin-2-yl]methoxy]-6,8-dihydro-5H-pyrido[3,4-d]pyrimidin-4-yl]-1-prop-2-enoyl-piperazin-2-yl]acetonitrile] | C (“C”>50% POC) | 0.0001 to 1 | – | –
C=CC(=O)N1CCN(c2nc(OC[C@@H]3CCN(C)C3)nc3c2CCN(c2cc(O)cc4ccccc24)C3)C[C@@H]1CC#N [Example 350, 2-((S)-1-acryloyl-4-(7-(3-hydroxynaphthalen-1-yl)-2-(((R)-1-methylpyrrolidin-3-yl)methoxy)-5,6,7,8-tetrahydropyrido[3,4-d]pyrimidin-4-yl)piperazin-2-yl)acetonitrile] | C (“C”>50% POC) | 0.0001 to 1 | – | –
C=CC(=O)N1CCN(c2nc(OC[C@@H]3CCCN3C)nc3c2CCN(c2c(C)ccc4[nH]ncc24)C3)CC1CC#N (stereo partly drawn) [Example 148, 2-[4-[7-(5-methyl-1H-indazol-4-yl)-2-[[(2S)-1-methylpyrrolidin-2-yl]methoxy]-6,8-dihydro-5H-pyrido[3,4-d]pyrimidin-4-yl]-1-prop-2-enoyl-piperazin-2-yl]acetonitrile] | C (“C”>50% POC) | – | – | 0.0001 to 1
C=CC(=O)N1CCN(c2nc(OCCCN3CCN(C)CC3)nc3c2CCN(c2cc(O)cc4ccccc24)C3)CC1 [Example 82, 1-(4-(7-(3-hydroxynaphthalen-1-yl)-2-(3-(4-methylpiperazin-1-yl)propoxy)-5,6,7,8-tetrahydropyrido[3,4-d]pyrimidin-4-yl)piperazin-1-yl)prop-2-en-1-one] | C (“C”>50% POC) | 0.0001 to 1 | – | –
C=CC(=O)N1CCN(c2nc(OC[C@@H]3COCCN3C)nc3c2CCN(c2cccc4ccccc24)C3)CC1CC#N (stereo partly drawn) [Example 443, 2-(1-Acryloyl-4-(2-(((S)-4-methylmorpholin-3-yl)methoxy)-7-(naphthalen-1-yl)-5,6,7,8-tetrahydropyrido[3,4-d]pyrimidin-4-yl)piperazin-2-yl)acetonitrile] | C (“C”>50% POC) | – | 0.0001 to 1 | –
C=CC(=O)N1CCN(c2nc(OCc3ncc[nH]3)nc3c2CCN(c2cccc4ccccc24)C3)C[C@@H]1CC#N [Example 351, 2-[(2S)-4-[2-(1H-imidazol-2-ylmethoxy)-7-(1-naphthyl) -6,8-dihydro-5H-pyrido[3,4-d]pyrimidin-4-yl]-1-prop-2-enoyl-piperazin-2-yl]acetonitrile] | C (“C”>50% POC) | 0.0001 to 1 | – | –
C=CC(=O)N1CCN(c2nc(OC[C@@H]3CCCN3C)nc3c2CCN(c2cccc4ccn(C)c24)C3)C[C@@H]1CC#N [Example 434, 2-((S)-1-acryloyl-4-(7-(1-methyl-1H-indol-7-yl)-2-(((S)-1-methylpyrrolidin-2-yl)methoxy)-5,6,7,8-tetrahydropyrido[3,4-d]pyrimidin-4-yl)piperazin-2-yl)acetonitrile] | C (“C”>50% POC) | 0.0001 to 1 | – | –
C=CC(=O)N1CCN(c2nc(OC[C@@H]3CCCN3C)nc3c2CCN(c2ccc(F)cc2C(F)(F)F)C3)CC1CC#N (stereo partly drawn) [Example 276, 2-(1-acryloyl-4-(7-(4-fluoro-2-(trifluoromethyl)phenyl)-2-(((S)-1-methylpyrrolidin-2-yl)methoxy)-5,6,7,8-tetrahydropyrido[3,4-d]pyrimidin-4-yl)piperazin-2-yl)acetonitrile] | C (“C”>50% POC) | 0.0001 to 1 | – | –
